Test results: US8759051B2, “Control of contaminant microorganisms in fermentation processes with peroxygen-releasing compounds” (E I du Pont de Nemours and Company, priority 2010, dated 2014)

How the values were obtained:
Format in all cases: cell-based
[1] = tested on: lactic acid bacteria (LAB); assay: Susceptibility of lactic acid bacteria cocktail to sodium percarbonate in diluted molasses (Example 1); details: for LAB level after treatment: approx. 2 hours, 32° C., molasses
Description: In this example, the susceptibility of yeast and lactic acid bacteria to sodium percarbonate was determined in molasses. Molasses was prepared by diluting molasses (B&G Foods, Inc., Roseland, N.J.) 1 part to 3.1 parts water to mimic conditions used for ethanol production based on a molasses feedstock (common in Latin America and Asia). The diluted molasses was autoclaved at 121° C. for 15 minutes to sterilize prior to use in the experiment. Cultures of lactic acid bacteria (LAB) (Lactobacillus plantarum, Lactobacillus brevis, Lactobacillus fermentum, and Lactobacillus paracasei) were prepared by inoculating MRS broth (available from Difco Laboratories Inc., Sparks, Md.) and incubating overnight at 32° C. with agitation. The bacteria were selected because they had previously been isolated from contaminated ethanol fermentation processes. Cultures of each organism were combined to create a bacterial cocktail and diluted in molasses to give 1.0×10^7, 1.0×10^6, and 1.0×10^5 bacteria/ml, or commonly expressed as colony forming units per milliliter or CFU/ml). Sodium percarbonate (Alfa Aesar, Ward Hill, Mass.) was prepared as a 2% solution immediately prior to use. Percarbonate was added to tubes containing 25 ml of inoculated molasses to give concentrations of 0, 100, 250, 500 and 1000 ppm. Tubes were incubated at 32° C. with agitation. After approximately 2 hours, bacterial levels present in each tube were enumerated by plating decimal dilutions of molasses onto the surface of MRS agar plates (Difco Laboratories Inc., Sparks, Md.). Plates were incubated overnight at 32° C.

Ethanol Red = assay: Susceptibility of fermenting yeast to sodium percarbonate in diluted molasses (Example 1, second part); details: for yeast level after treatment: two hours, molasses
Description: (§1) In a second part of this Example 1, the yeasts strains Ethanol Red, FermPro S, and SuperStart (commonly used as fermenting yeasts in the ethanol industry) were cultured overnight in Yeast Peptone Dextrose broth (YPD, Difco Laboratories Inc., Sparks, Md.). Individual strains were then suspended in dilute molasses as above to give approximately 1×10^6 CFU/ml and treated with various concentration of percarbonate for two hours as described above.

FermPro S = assay: as above; details: for yeast level after treatment: two hours, molasses
Description: as §1

SuperStart = assay: as above; details: for yeast level after treatment: two hours, molasses
Description: as §1

[2] = tested on: lactic acid bacteria (LAB); assay: Inactivation of LAB in molasses at pH 4.2 and 5.4 (Examples 2 and 3); details: for reduction in the amount of LAB: 2 hours; for reduction in the levels of LAB: 2-hour
Description: Molasses (B&G Foods, Inc., Roseland, N.J.) was diluted 1 to 3.1 with water and sterilized as in Example 1. The prepared molasses was then divided into two lots and pH-adjusted using sulfuric acid to approximately pH 4.2 and 5.4, respectively. Cultures of LAB were prepared as in Example 1 and inoculated into the molasses to give approximately 1×10^6 CFU/ml. Sodium percarbonate (Alfa Aesar, Ward Hill, Mass.) was added to give 250, 500, and 750 ppm. […] Levels of LAB were enumerated by dilution and plating onto the surface of MRS agar followed by incubation at 32° C. LAB were enumerated at approximately 2 and 24 hours after the addition of sodium percarbonate.
Molasses was prepared as above and adjusted to pH 4.2 and 5.4 using sulfuric acid. Cultures of lactic acid bacteria were prepared as indicated in Example 1 and inoculated into the molasses to give approximately 10E6 CFU/ml. Levels of bacteria were confirmed by plating serial dilutions of the inoculated molasses onto the surface of MRS agar plates as in Example 1. Calcium peroxide was added at the levels indicated. Bacterial levels were enumerated at 2 and 24 hours following addition as described above.

[3] = tested on: lactic acid bacteria (LAB); assay: Inactivation of LAB in dilute molasses at pH 5.0 in the presence of yeast Ethanol Red (Example 5); details: for Log CFU/mL of LAB at hour indicated: 32° C.
Description: Cultures of lactic acid bacteria (LAB) were prepared as in Example 1 above. Molasses was diluted 1:3.1 with water as in previous examples. The fermenting yeast Ethanol Red was cultured as in example 1. Populations of lactic acid bacteria and yeasts were determined by dilution plating on MRS agar and YPD agar, respectively. Overnight cultures of LAB were mixed to prepare a bacterial cocktail and inoculated into molasses (diluted 1:3.1 with water) adjusted to pH 5.0 to give approximately 6.11 Log CFU/ml. Cultures of yeasts were added to each tube at a concentration of approximately 6.80 Log CFU/ml. […] The amount of UHP added was 1450 ppm. The amount of percarbonate added was 1812 ppm. Tubes were then incubated at 32° C. with agitation. […] Amphotericin inhibits the growth of yeast, facilitating enumeration of bacteria only.

[4] = 1.0×10^6 CFU/ml, 500 ppm percarbonate

O=C([O-])[O-].O=C([O-])[O-].OO.OO.OO.[Na+].[Na+].[Na+].[Na+] [Sodium percarbonate, sodium percarbonate]
log reductions of LAB ([1]; 1000 ppm percarbonate): > 6 log
LAB level (below detectable limit of the assay) ([1]; 1000 ppm percarbonate, all of the tested levels of LAB): < 10 CFU/ml
reduction in the level of bacteria ([1]; initial LAB 1.0×10^6 or 1.0×10^7 CFU/ml, 500 ppm percarbonate): 2 log
LAB level after treatment ([1]; inoculum 1.0 × 10^5 CFU/ml, 100 ppm percarbonate): 8.90 × 10^4 CFU/ml
LAB level after treatment ([1]; inoculum 1.0 × 10^5 CFU/ml, 250 ppm percarbonate): 1.80 × 10^3 CFU/ml
LAB level after treatment ([1]; inoculum 1.0 × 10^5 CFU/ml, 500 ppm percarbonate): 1.70 × 10^2 CFU/ml
LAB level after treatment ([1]; inoculum 1.0 × 10^5 CFU/ml, 1000 ppm percarbonate): <10 CFU/ml
LAB level after treatment ([1]; inoculum 1.0 × 10^6 CFU/ml, 100 ppm percarbonate): 8.50 × 10^5 CFU/ml
LAB level after treatment ([1]; inoculum 1.0 × 10^6 CFU/ml, 250 ppm percarbonate): 1.55 × 10^5 CFU/ml
LAB level after treatment ([1]; inoculum 1.0 × 10^6 CFU/ml, 500 ppm percarbonate): 1.17 × 10^4 CFU/ml
LAB level after treatment ([1]; inoculum 1.0 × 10^6 CFU/ml, 1000 ppm percarbonate): <10 CFU/ml
LAB level after treatment ([1]; inoculum 1.0 × 10^7 CFU/ml, 100 ppm percarbonate): 6.90 × 10^6 CFU/ml
LAB level after treatment ([1]; inoculum 1.0 × 10^7 CFU/ml, 250 ppm percarbonate): 1.68 × 10^6 CFU/ml
LAB level after treatment ([1]; inoculum 1.0 × 10^7 CFU/ml, 500 ppm percarbonate): 1.20 × 10^5 CFU/ml
LAB level after treatment ([1]; inoculum 1.0 × 10^7 CFU/ml, 1000 ppm percarbonate): <10 CFU/ml
reduction in the level of bacteria ([1]; starting LAB 1.0×10^5 CFU/ml, 500 ppm percarbonate, two hours): ~3 log
reduction of yeast (Ethanol Red; [4]): < 1 log
yeast level after treatment (Ethanol Red; 100 ppm percarbonate): 7.90 × 10^6 CFU/ml
yeast level after treatment (Ethanol Red; 250 ppm percarbonate): 5.00 × 10^6 CFU/ml
yeast level after treatment (Ethanol Red; 500 ppm percarbonate): 1.99 × 10^6 CFU/ml
reduction of yeast (Ethanol Red; 1000 ppm percarbonate): approximately 1 log
yeast level after treatment (Ethanol Red; 1000 ppm percarbonate): 4.90 × 10^5 CFU/ml
reduction of yeast (FermPro S; [4]): < 1 log
yeast level after treatment (FermPro S; 100 ppm percarbonate): 7.30 × 10^6 CFU/ml
yeast level after treatment (FermPro S; 250 ppm percarbonate): 3.00 × 10^6 CFU/ml
yeast level after treatment (FermPro S; 500 ppm percarbonate): 1.43 × 10^6 CFU/ml
reduction of yeast (FermPro S; 1000 ppm percarbonate): approximately 1 log
yeast level after treatment (FermPro S; 1000 ppm percarbonate): 2.90 × 10^5 CFU/ml
reduction in the concentration of yeast (SuperStart; [4]): approximately 1 log
yeast level after treatment (SuperStart; 100 ppm percarbonate): 1.22 × 10^6 CFU/ml
yeast level after treatment (SuperStart; 250 ppm percarbonate): 3.80 × 10^5 CFU/ml
yeast level after treatment (SuperStart; 500 ppm percarbonate): 1.07 × 10^5 CFU/ml
yeast level after treatment (SuperStart; 1000 ppm percarbonate): 6.00 × 10^3 CFU/ml
CFU/ml LAB at hour indicated ([2]; molasses at pH 4.2, 250 ppm (69 ppm as H2O2), hour 2): 7.85 × 10^5 CFU/ml
CFU/ml LAB at hour indicated ([2]; molasses at pH 4.2, 250 ppm (69 ppm as H2O2), hour 24): 8.75 × 10^4 CFU/ml
CFU/ml LAB at hour indicated ([2]; molasses at pH 4.2, 500 ppm (138 ppm as H2O2), hour 2): 8.40 × 10^5 CFU/ml
CFU/ml LAB at hour indicated ([2]; molasses at pH 4.2, 500 ppm (138 ppm as H2O2), hour 24): 7.90 × 10^6 CFU/ml
CFU/ml LAB at hour indicated ([2]; molasses at pH 4.2, 750 ppm (207 ppm as H2O2), hour 2): 3.10 × 10^5 CFU/ml
CFU/ml LAB at hour indicated ([2]; molasses at pH 4.2, 750 ppm (207 ppm as H2O2), hour 24): 1.50 × 10^3 CFU/ml
CFU/ml LAB at hour indicated ([2]; molasses at pH 5.4, 250 ppm (69 ppm as H2O2), hour 2): 3.95 × 10^5 CFU/ml
CFU/ml LAB at hour indicated ([2]; molasses at pH 5.4, 250 ppm (69 ppm as H2O2), hour 24): 7.50 × 10^1 CFU/ml
CFU/ml LAB at hour indicated ([2]; molasses at pH 5.4, 500 ppm (138 ppm as H2O2), hour 2): 3.85 × 10^4 CFU/ml
CFU/ml LAB at hour indicated ([2]; molasses at pH 5.4, 500 ppm (138 ppm as H2O2), hour 24): 1.50 × 10^1 CFU/ml
CFU/ml LAB at hour indicated ([2]; molasses at pH 5.4, 750 ppm (207 ppm as H2O2), hour 2): 2.80 × 10^4 CFU/ml
CFU/ml LAB at hour indicated ([2]; molasses at pH 5.4, 750 ppm (207 ppm as H2O2), hour 24): <10 CFU/ml
CFU/ml LAB at hour indicated ([2]; molasses at pH 5.4, 750 ppm (207 ppm as H2O2), hour 24, listed as sodium percarbonate): below the detection limit
reduction in the amount of LAB ([2]; molasses pH 4.2, 250 ppm sodium percarbonate): approximately 1 log
reduction in the amount of LAB ([2]; molasses pH 4.2, 500 ppm sodium percarbonate): approximately 1 log
reduction in the amount of LAB ([2]; molasses pH 4.2, 750 ppm sodium percarbonate): approximately 1 log
reduction in the number of LAB ([2]; molasses pH 4.2, 750 ppm sodium percarbonate, 24 hour): more than 3 log units
reduction in the level of LAB ([2]; molasses pH 5.4, 250 ppm sodium percarbonate, 24-hour): ~6 log
reduction in the levels of LAB ([2]; molasses pH 5.4, 500 ppm sodium percarbonate): approximately 2 log
reduction in the levels of LAB ([2]; molasses pH 5.4, 750 ppm sodium percarbonate): approximately 2 log
reduction of the population of LAB ([3]; 500 ppm as H2O2, 2 hours of incubation at 32° C., in presence of yeast): ~5 log units
Log CFU/mL of LAB at hour indicated ([3]; 500 ppm as H2O2, hour 2, molasses pH 5.0, yeast approx. 6.80 Log CFU/ml): 1.95 Log CFU/mL
Log CFU/mL of LAB at hour indicated ([3]; 500 ppm as H2O2, hour 6, molasses pH 5.0, yeast approx. 6.80 Log CFU/ml, listed as percarbonate): <1 Log CFU/mL
Log CFU/mL of LAB at hour indicated ([3]; 500 ppm as H2O2, hour 6, molasses pH 5.0, yeast approx. 6.80 Log CFU/ml, listed as sodium percarbonate): below the detectable limit
